Measured values as given in US6844336B2, “4-fluoroalkyl-2h-benzopyrans with anti-estogenic activity” (Schering AG, priority 2000, dated 2005).

System: density of the trabecular bone in the proximal tibia of ovariectomized rats
Test: Bone studies in ovariectomized rats (bone density of proximal tibia by pQCT)
Design: species or system rat
Settings: three-month-old ovariectomized female rats, once daily for 28 days, 0.1 mg/kg/animal/day p.o., pQCT ex vivo
Procedure: Three-month-old female rats are ovariectomized and treated once daily with the test compound immediately after the operation for 28 days. The administration is carried out subcutaneously in arachis oil/ethanol or it is carried out perorally. The animals are sacrificed on the day after the last administration, and tibiae as well as uteri are removed. The uteri are weighed, fixed and worked up for histological studies. The determination of the bone density is carried out ex vivo on prepared long bones using pQCT (quantitative computer tomography). The measurements are performed at a distance of 4-6 mm from the ball of the joint of the proximal tibia.
By the ovariectomy, the density of the trabecular bone in the measured area is reduced by about 400 mg of Ca^2+/cm^3 to about 300 mg of Ca^2+/cm^3. By the treatment with a compound of general formula I according to this invention (dosage of 0.1 mg/kg/animal/day p.o.), the degradation of the bone density in the proximal tibia is prevented or inhibited.

Oc1ccc(C2=C(C(F)(F)F)c3ccc(O)cc3OC2c2ccc(OCCN3CCCCC3)cc2)cc1 (single isomer, unassigned; (+)) [Example 1, (+)-7-Hydroxy-3-(4-hydroxyphenyl)-2-[4-(2-piperidin-1-ylethoxy)-penyl]-4(trifluoromethyl)-2H-1-benzopyran]
bone protection in comparison to the control that was subjected to a sham operation: 73%
